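Cells were grown in 96-well plates and exposed to each compound for 48 hours at five concentrations; endpoints were interpolated linearly between bracketing concentrations, or set to the highest concentration if not reached. At the TGI there is no net growth.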
Legend:
Assay in all cases: NCI-60 cell line screen, 48 h
OVCAR-5 ovarian = tested on: OVCAR-5 ovarian
MALME-3M melanoma = tested on: MALME-3M melanoma
SNB-75 CNS = tested on: SNB-75 CNS
SK-MEL-5 melanoma = tested on: SK-MEL-5 melanoma
KM12 colon = tested on: KM12 colon
DLD-1 colon = tested on: DLD-1 colon
COLO 205 colon = tested on: COLO 205 colon
CAKI-1 renal = tested on: CAKI-1 renal
MDA-MB-435 = tested on: MDA-MB-435
HOP-92 NSCLC = tested on: HOP-92 NSCLC
A498 renal = tested on: A498 renal
NCI-H522 lung = tested on: NCI-H522 lung
ACHN renal = tested on: ACHN renal
SNB-19 CNS = tested on: SNB-19 CNS
CCRF-CEM leukemia = tested on: CCRF-CEM leukemia
MCF7 breast = tested on: MCF7 breast
UACC-62 melanoma = tested on: UACC-62 melanoma
OVCAR-4 ovarian = tested on: OVCAR-4 ovarian
UACC-257 melanoma = tested on: UACC-257 melanoma
NCI-H23 lung = tested on: NCI-H23 lung
HCC-2998 colon = tested on: HCC-2998 colon
SNB-78 CNS = tested on: SNB-78 CNS
U251 CNS = tested on: U251 CNS
HCT-116 colon = tested on: HCT-116 colon
KM20L2 colon = tested on: KM20L2 colon
SF-539 CNS = tested on: SF-539 CNS
HT29 colon = tested on: HT29 colon
M19-MEL melanoma = tested on: M19-MEL melanoma
MOLT-4 leukemia = tested on: MOLT-4 leukemia
NCI/ADR-RES ovarian = tested on: NCI/ADR-RES ovarian
HOP-62 NSCLC = tested on: HOP-62 NSCLC
UO-31 renal = tested on: UO-31 renal
SK-MEL-28 melanoma = tested on: SK-MEL-28 melanoma
SW-620 colon = tested on: SW-620 colon
SF-268 CNS = tested on: SF-268 CNS
HCT-15 colon = tested on: HCT-15 colon
786-0 renal = tested on: 786-0 renal
OVCAR-3 ovarian = tested on: OVCAR-3 ovarian
RXF 393 renal = tested on: RXF 393 renal
SN12C renal = tested on: SN12C renal
HS 578T breast = tested on: HS 578T breast
SK-MEL-2 melanoma = tested on: SK-MEL-2 melanoma
M14 melanoma = tested on: M14 melanoma
DMS 114 small cell lung = tested on: DMS 114 small cell lung
RPMI-8226 leukemia = tested on: RPMI-8226 leukemia
MDA-N = tested on: MDA-N
K-562 leukemia = tested on: K-562 leukemia
DMS 273 small cell lung = tested on: DMS 273 small cell lung
DU-145 prostate = tested on: DU-145 prostate
SR leukemia = tested on: SR leukemia
NCI-H226 lung = tested on: NCI-H226 lung
SK-OV-3 ovarian = tested on: SK-OV-3 ovarian
HL-60(TB) leukemia = tested on: HL-60(TB) leukemia
HOP-18 NSCLC = tested on: HOP-18 NSCLC
A549 NSCLC = tested on: A549 NSCLC
TK-10 renal = tested on: TK-10 renal
LOX IMVI melanoma = tested on: LOX IMVI melanoma
OVCAR-8 ovarian = tested on: OVCAR-8 ovarian
T-47D breast = tested on: T-47D breast
IGROV1 ovarian = tested on: IGROV1 ovarian
SF-295 CNS = tested on: SF-295 CNS
NCI-H460 lung = tested on: NCI-H460 lung
LXFL 529 NSCLC = tested on: LXFL 529 NSCLC
EKVX NSCLC = tested on: EKVX NSCLC
XF 498 CNS = tested on: XF 498 CNS

## NC(=O)C(=O)n1ncc(Cl)c(Cl)c1=O
OVCAR-5 ovarian
  TGI: 63.1 µM
MALME-3M melanoma
  TGI: 38.7 µM
SNB-75 CNS
  TGI: > 69.7 µM
SK-MEL-5 melanoma
  TGI: 39.4 µM
KM12 colon
  TGI: 62.5 µM
DLD-1 colon
  TGI: 47.7 µM
COLO 205 colon
  TGI: > 51.1 µM
CAKI-1 renal
  TGI: 43.5 µM
MDA-MB-435
  TGI: > 100 µM
HOP-92 NSCLC
  TGI: > 57.8 µM
A498 renal
  TGI: > 100 µM
NCI-H522 lung
  TGI: 20.6 µM
ACHN renal
  TGI: 55.7 µM
SNB-19 CNS
  TGI: > 100 µM
CCRF-CEM leukemia
  TGI: 26.1 µM
MCF7 breast
  TGI: > 100 µM
UACC-62 melanoma
  TGI: 54.4 µM
OVCAR-4 ovarian
  TGI: 46.9 µM
UACC-257 melanoma
  TGI: 58.4 µM
NCI-H23 lung
  TGI: 52.9 µM
HCC-2998 colon
  TGI: 32.1 µM
SNB-78 CNS
  TGI: 49.8 µM
U251 CNS
  TGI: > 60.3 µM
HCT-116 colon
  TGI: 55.3 µM
KM20L2 colon
  TGI: > 90.8 µM
SF-539 CNS
  TGI: 86.1 µM
HT29 colon
  TGI: 44.4 µM
M19-MEL melanoma
  TGI: > 65.3 µM
MOLT-4 leukemia
  TGI: 20.4 µM
NCI/ADR-RES ovarian
  TGI: > 100 µM
HOP-62 NSCLC
  TGI: > 100 µM
UO-31 renal
  TGI: 48.1 µM
SK-MEL-28 melanoma
  TGI: 30.5 µM
SW-620 colon
  TGI: 35.3 µM
SF-268 CNS
  TGI: > 92.9 µM
HCT-15 colon
  TGI: > 76.4 µM
786-0 renal
  TGI: 58.5 µM
OVCAR-3 ovarian
  TGI: 50.8 µM
RXF 393 renal
  TGI: > 43.1 µM
SN12C renal
  TGI: 40.8 µM
HS 578T breast
  TGI: > 100 µM
SK-MEL-2 melanoma
  TGI: 30.8 µM
M14 melanoma
  TGI: 46.9 µM
DMS 114 small cell lung
  TGI: 36.6 µM
RPMI-8226 leukemia
  TGI: 51.9 µM
MDA-N
  TGI: > 100 µM
K-562 leukemia
  TGI: 47 µM
DMS 273 small cell lung
  TGI: > 100 µM
DU-145 prostate
  TGI: > 100 µM
SR leukemia
  TGI: > 49.7 µM
NCI-H226 lung
  TGI: > 100 µM
SK-OV-3 ovarian
  TGI: > 100 µM
HL-60(TB) leukemia
  TGI: 17.7 µM
HOP-18 NSCLC
  TGI: 35.1 µM
A549 NSCLC
  TGI: > 100 µM
TK-10 renal
  TGI: 50.8 µM
LOX IMVI melanoma
  TGI: 56.6 µM
OVCAR-8 ovarian
  TGI: 65.9 µM
T-47D breast
  TGI: > 100 µM
IGROV1 ovarian
  TGI: > 77.4 µM
SF-295 CNS
  TGI: 20.3 µM
NCI-H460 lung
  TGI: > 100 µM
LXFL 529 NSCLC
  TGI: 29 µM
EKVX NSCLC
  TGI: 67.5 µM
XF 498 CNS
  TGI: 31.6 µM

## O=C(OCc1ccccc1C1CSCSC1)c1cc(C(=O)OCc2ccccc2C2CSCSC2)c(C(=O)OCc2ccccc2C2CSCSC2)cc1C(=O)OCc1ccccc1C1CSCSC1
OVCAR-5 ovarian
  TGI: > 100 µM
MALME-3M melanoma
  TGI: > 100 µM
SNB-75 CNS
  TGI: > 100 µM
SK-MEL-5 melanoma
  TGI: > 100 µM
KM12 colon
  TGI: > 100 µM
DLD-1 colon
  TGI: > 100 µM
COLO 205 colon
  TGI: > 100 µM
CAKI-1 renal
  TGI: > 100 µM
HOP-92 NSCLC
  TGI: > 100 µM
A498 renal
  TGI: > 100 µM
NCI-H522 lung
  TGI: > 100 µM
ACHN renal
  TGI: > 100 µM
CCRF-CEM leukemia
  TGI: > 100 µM
UACC-62 melanoma
  TGI: > 100 µM
OVCAR-4 ovarian
  TGI: > 100 µM
UACC-257 melanoma
  TGI: > 100 µM
NCI-H23 lung
  TGI: > 100 µM
SNB-78 CNS
  TGI: > 100 µM
U251 CNS
  TGI: > 100 µM
HCT-116 colon
  TGI: > 100 µM
KM20L2 colon
  TGI: > 100 µM
SF-539 CNS
  TGI: > 100 µM
HT29 colon
  TGI: > 100 µM
M19-MEL melanoma
  TGI: > 100 µM
MOLT-4 leukemia
  TGI: > 100 µM
HOP-62 NSCLC
  TGI: > 100 µM
UO-31 renal
  TGI: > 100 µM
SK-MEL-28 melanoma
  TGI: > 100 µM
SW-620 colon
  TGI: > 100 µM
SF-268 CNS
  TGI: > 100 µM
HCT-15 colon
  TGI: > 100 µM
786-0 renal
  TGI: > 100 µM
OVCAR-3 ovarian
  TGI: > 100 µM
RXF 393 renal
  TGI: > 100 µM
SN12C renal
  TGI: > 100 µM
SK-MEL-2 melanoma
  TGI: > 100 µM
M14 melanoma
  TGI: > 100 µM
DMS 114 small cell lung
  TGI: > 100 µM
RPMI-8226 leukemia
  TGI: > 100 µM
K-562 leukemia
  TGI: > 100 µM
DMS 273 small cell lung
  TGI: > 100 µM
SR leukemia
  TGI: > 100 µM
NCI-H226 lung
  TGI: > 100 µM
SK-OV-3 ovarian
  TGI: > 100 µM
HL-60(TB) leukemia
  TGI: > 100 µM
HOP-18 NSCLC
  TGI: > 100 µM
A549 NSCLC
  TGI: > 100 µM
TK-10 renal
  TGI: > 100 µM
LOX IMVI melanoma
  TGI: > 100 µM
OVCAR-8 ovarian
  TGI: > 100 µM
IGROV1 ovarian
  TGI: > 100 µM
SF-295 CNS
  TGI: > 100 µM
NCI-H460 lung
  TGI: > 100 µM
LXFL 529 NSCLC
  TGI: > 100 µM

## Cc1cc2n([O-])cccc-2[n+](=O)c1
OVCAR-5 ovarian
  TGI: > 100 µM
MALME-3M melanoma
  TGI: > 100 µM
SNB-75 CNS
  TGI: > 100 µM
SK-MEL-5 melanoma
  TGI: > 100 µM
KM12 colon
  TGI: > 100 µM
DLD-1 colon
  TGI: > 100 µM
COLO 205 colon
  TGI: > 100 µM
CAKI-1 renal
  TGI: > 100 µM
HOP-92 NSCLC
  TGI: > 100 µM
NCI-H522 lung
  TGI: > 100 µM
ACHN renal
  TGI: > 100 µM
SNB-19 CNS
  TGI: > 100 µM
CCRF-CEM leukemia
  TGI: > 100 µM
UACC-62 melanoma
  TGI: > 100 µM
OVCAR-4 ovarian
  TGI: > 100 µM
UACC-257 melanoma
  TGI: > 100 µM
NCI-H23 lung
  TGI: > 100 µM
HCC-2998 colon
  TGI: > 100 µM
SNB-78 CNS
  TGI: > 100 µM
U251 CNS
  TGI: > 100 µM
HCT-116 colon
  TGI: > 100 µM
KM20L2 colon
  TGI: > 100 µM
SF-539 CNS
  TGI: > 100 µM
HT29 colon
  TGI: > 100 µM
M19-MEL melanoma
  TGI: > 100 µM
MOLT-4 leukemia
  TGI: > 100 µM
HOP-62 NSCLC
  TGI: > 100 µM
UO-31 renal
  TGI: > 100 µM
SK-MEL-28 melanoma
  TGI: > 100 µM
SW-620 colon
  TGI: > 100 µM
SF-268 CNS
  TGI: > 100 µM
HCT-15 colon
  TGI: > 100 µM
OVCAR-3 ovarian
  TGI: > 100 µM
RXF 393 renal
  TGI: > 100 µM
SN12C renal
  TGI: > 100 µM
SK-MEL-2 melanoma
  TGI: > 100 µM
M14 melanoma
  TGI: > 100 µM
DMS 114 small cell lung
  TGI: > 100 µM
RPMI-8226 leukemia
  TGI: > 100 µM
K-562 leukemia
  TGI: > 100 µM
DMS 273 small cell lung
  TGI: > 100 µM
SR leukemia
  TGI: > 100 µM
NCI-H226 lung
  TGI: > 100 µM
SK-OV-3 ovarian
  TGI: > 100 µM
HL-60(TB) leukemia
  TGI: > 100 µM
A549 NSCLC
  TGI: > 100 µM
TK-10 renal
  TGI: > 100 µM
OVCAR-8 ovarian
  TGI: > 100 µM
IGROV1 ovarian
  TGI: > 100 µM
SF-295 CNS
  TGI: > 100 µM
NCI-H460 lung
  TGI: > 100 µM
LXFL 529 NSCLC
  TGI: > 100 µM
EKVX NSCLC
  TGI: > 100 µM
XF 498 CNS
  TGI: > 100 µM
